Assays:
Assay in all cases: relative viability (nuclei count vs DMSO), 5 days (fraction); higher = more cells survive
Dabrafenib + Bortezomib = compound: CC(C)(C)c1nc(-c2cccc(NS(=O)(=O)c3c(F)cccc3F)c2F)c(-c2ccnc(N)n2)s1 [Dabrafenib] + CC(C)C[C@H](NC(=O)[C@H](Cc1ccccc1)NC(=O)c1cnccn1)B(O)O [Bortezomib] (partner 0.002 µM)
How it was run: (§1)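 Lung cancer cell lines were seeded in 1536-well plates and dosed by pin tool the next day, with either a single drug or a fixed anchor-drug dose combined with five library-drug doses (not always all listed) spaced in √10 steps. Five days later, one step fixed the cells and stained their nuclei (final 0.05% Triton X-100, 1% formaldehyde, 1 ug/ml Hoechst), and nuclei were counted on 4× images. Relative viability is the nuclei count in treated wells divided by the count in vehicle wells, and each value is the median of duplicate plates.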

VX-702 + Dasatinib = compound: NC(=O)c1ccc(N(C(N)=O)c2c(F)cccc2F)nc1-c1ccc(F)cc1F [VX-702] + Cc1nc(Nc2ncc(C(=O)Nc3c(C)cccc3Cl)s2)cc(N2CCN(CCO)CC2)n1 [Dasatinib] (partner 0.075 µM)
How it was run: as §1

VX-702 + Palbociclib = compound: NC(=O)c1ccc(N(C(N)=O)c2c(F)cccc2F)nc1-c1ccc(F)cc1F [VX-702] + CC(=O)c1c(C)c2cnc(Nc3ccc(N4CCNCC4)cn3)nc2n(C2CCCC2)c1=O [Palbociclib] (partner 0.5 µM)
How it was run: as §1

Dabrafenib + Linsitinib = compound: CC(C)(C)c1nc(-c2cccc(NS(=O)(=O)c3c(F)cccc3F)c2F)c(-c2ccnc(N)n2)s1 [Dabrafenib] + C[C@]1(O)C[C@@H](c2nc(-c3ccc4ccc(-c5ccccc5)nc4c3)c3c(N)nccn32)C1 [Linsitinib] (partner 1 µM)
How it was run: as §1

Row | Cell Line | relative viability (Dabrafenib + Bortezomib; first compound 0.003 µM) | relative viability (Dabrafenib + Bortezomib; first compound 0.009487 µM) | relative viability (Dabrafenib + Bortezomib; first compound 0.03 µM) | relative viability (Dabrafenib + Bortezomib; first compound 0.09487 µM) | relative viability (Dabrafenib + Bortezomib; first compound 0.3 µM) | relative viability (VX-702 + Dasatinib; first compound 0.02 µM) | relative viability (VX-702 + Dasatinib; first compound 0.2 µM) | relative viability (VX-702 + Dasatinib; first compound 0.6325 µM) | relative viability (VX-702 + Dasatinib; first compound 2 µM) | relative viability (VX-702 + Palbociclib; first compound 0.02 µM) | relative viability (VX-702 + Palbociclib; first compound 0.2 µM) | relative viability (VX-702 + Palbociclib; first compound 0.6325 µM) | relative viability (VX-702 + Palbociclib; first compound 2 µM) | relative viability (Dabrafenib + Linsitinib; first compound 0.003 µM) | relative viability (Dabrafenib + Linsitinib; first compound 0.009487 µM) | relative viability (Dabrafenib + Linsitinib; first compound 0.03 µM) | relative viability (Dabrafenib + Linsitinib; first compound 0.09487 µM) | relative viability (Dabrafenib + Linsitinib; first compound 0.3 µM)
1 | 201T | 1.08 | 1.07 | 1.06 | 1.11 | 1.1 | 0.578 | 0.542 | 0.587 | 0.576 | 0.349 | 0.345 | 0.347 | 0.336 | 0.918 | 1.07 | 0.941 | 1.03 | 1.05
2 | A549 |  |  |  |  |  |  |  |  |  |  |  |  |  |  | 0.549 | 0.374 | 0.697 | 0.568
3 | A-427 |  | 0.969 | 0.939 | 0.821 | 0.987 | 0.689 | 0.698 | 0.796 | 0.584 | 0.541 | 0.52 | 0.537 | 0.526 |  | 1.13 | 1 | 0.949 | 1.1
4 | ABC-1 |  | 0.292 | 0.265 | 0.31 | 0.288 | 0.666 | 0.535 | 0.573 | 0.562 | 0.569 | 0.633 | 0.826 | 0.8 |  | 0.81 | 0.841 | 0.892 | 0.861
5 | BEN |  | 0.936 |  | 0.696 | 0.996 | 0.337 | 0.255 | 0.317 | 0.304 | 0.51 | 0.467 | 0.413 | 0.514 |  | 0.986 |  | 0.883 | 0.938
6 | CAL-12T | 0.623 | 1.18 | 1.06 | 1.12 | 1.08 | 0.409 | 0.539 | 0.273 | 0.463 | 0.427 | 0.507 | 0.496 | 0.347 | 0.744 | 0.901 | 0.786 | 0.777 | 0.963
7 | COR-L23 | 1.06 | 1.15 | 0.91 | 0.898 | 0.915 | 0.523 | 0.475 | 0.559 | 0.673 | 0.271 | 0.312 | 0.323 | 0.341 | 0.997 | 0.974 | 0.843 | 0.886 | 0.883
8 | COR-L 105 | 0.721 | 0.843 | 0.69 | 0.738 | 0.895 | 0.315 | 0.402 | 0.313 | 0.3 | 0.38 | 0.409 | 0.432 | 0.38 | 0.959 | 0.943 | 0.908 | 0.88 | 1.07
9 | Calu-6 | 1.07 | 1.03 | 0.844 | 0.712 | 0.824 |  |  |  |  |  |  |  |  | 0.939 | 0.951 | 0.72 | 0.737 | 0.675
10 | ChaGo-K-1 |  | 0.816 | 1.01 | 0.983 | 1.11 | 0.769 | 0.584 | 0.622 | 0.614 | 0.942 | 0.881 | 0.893 | 0.946 |  |  |  |  | 
11 | EBC-1 | 0.602 | 0.644 | 0.477 | 0.411 | 0.353 |  |  |  |  |  |  |  |  | 0.854 | 0.867 | 0.679 | 0.378 | 0.309
12 | EKVX | 0.77 | 1.1 | 0.969 | 0.891 | 1.12 | 0.62 | 0.491 | 0.527 | 0.436 | 0.355 | 0.38 | 0.343 | 0.301 | 0.997 | 1.17 | 0.933 | 0.866 | 1.13
13 | EMC-BAC-2 | 1.04 | 1.11 | 1.03 | 0.936 | 1.06 | 0.182 | 0.331 | 0.332 | 0.275 | 0.5 | 0.489 | 0.501 | 0.481 | 0.773 | 0.825 | 0.616 | 0.838 | 0.851
14 | EPLC-272H |  | 0.945 | 0.954 | 0.631 | 1.18 | 0.359 | 0.332 | 0.362 | 0.377 | 0.312 | 0.343 | 0.316 | 0.311 |  | 1.36 | 1.02 | 0.939 | 0.918
15 | H3255 | 0.703 | 0.858 | 0.997 | 0.642 | 1.09 | 0.312 | 0.301 | 0.44 | 0.409 | 0.304 | 0.317 | 0.318 | 0.315 | 0.944 | 1.06 | 1.01 | 0.832 | 1.03
16 | HARA | 1.17 | 1.16 | 1 | 1.06 | 1.27 | 0.224 | 0.268 | 0.36 | 0.329 | 0.278 | 0.227 | 0.226 | 0.254 | 0.973 | 0.869 | 0.841 | 0.905 | 1.3
17 | HCC-15 | 1.06 | 0.971 | 0.997 | 0.891 | 0.814 | 0.667 | 0.501 | 0.602 | 0.639 | 0.732 | 0.639 | 0.724 | 0.491 | 0.851 | 0.996 | 0.917 | 0.821 | 0.951
